What all share (test): NCI 60 cell line single dose screen (SRB)
Common to all, as to format: cell-based

For one assay, the system named is CCRF-CEM. The settings on record: Homo sapiens; CCRF-CEM (leukemia), single dose 10^−5 M, 48 h; read-out: Growth inhibition percentage. A digest of the protocol:
(§1)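 Cells were plated and grown 24 h at 37 °C, 5% CO2 before compound addition from DMSO stock, then exposed 48 h. Adherent cells were fixed with cold TCA (final 10%) and suspension cells with 16% TCA. SRB-stained protein was read at 515 nm and percent growth was calculated against time-zero and untreated plates.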

For a further assay, the system named is EKVX. The settings on record: Homo sapiens; EKVX (non-small cell lung cancer), single dose 10^−5 M, 48 h; read-out: Growth inhibition percentage. A digest of the protocol:
as §1

For another assay, the system named is HOP-92. The note with it: Homo sapiens; HOP-92 (non-small cell lung cancer), single dose 10^−5 M, 48 h; read-out: Growth inhibition percentage. In short, it runs like this:
as §1

The next assay relates to HS 578T. The settings on record: Homo sapiens; HS 578T (breast cancer), single dose 10^−5 M, 48 h; read-out: Growth inhibition percentage. In short, it runs like this:
as §1

The subject of another assay is HT29. The note with it: Homo sapiens, HT-29; HT29 (colon cancer), single dose 10^−5 M, 48 h; read-out: Growth inhibition percentage. A digest of the protocol:
as §1

For another assay, the system named is K-562. The note with it: Homo sapiens, K562; K-562 (leukemia), single dose 10^−5 M, 48 h; read-out: Growth inhibition percentage. In short, it runs like this: as §1
Another assay deals with M14. The note with it: Homo sapiens; M14 (melanoma), single dose 10^−5 M, 48 h; read-out: Growth inhibition percentage. A digest of the protocol: as §1
The subject of a further assay is MALME-3M. The settings on record: Homo sapiens; MALME-3M (melanoma), single dose 10^−5 M, 48 h; read-out: Growth inhibition percentage. In short, it runs like this:
as §1

In another assay the test system is MDA-MB-231/ATCC. The settings on record: Homo sapiens; MDA-MB-231/ATCC (breast cancer), single dose 10^−5 M, 48 h; read-out: Growth inhibition percentage. A digest of the protocol:
as §1

The subject of another assay is MOLT-4. The note with it: Homo sapiens; MOLT-4 (leukemia), single dose 10^−5 M, 48 h; read-out: Growth inhibition percentage. In short, it runs like this:
as §1

The subject of a further assay is NCI-H322M. The note with it: Homo sapiens; NCI-H322M (non-small cell lung cancer), single dose 10^−5 M, 48 h; read-out: Growth inhibition percentage. A digest of the protocol:
as §1

A further assay relates to NCI-H522. The settings on record: Homo sapiens; NCI-H522 (non-small cell lung cancer), single dose 10^−5 M, 48 h; read-out: Growth inhibition percentage. A digest of the protocol:
as §1

The subject of a further assay is OVCAR-5. The note with it: Homo sapiens; OVCAR-5 (ovarian cancer), single dose 10^−5 M, 48 h; read-out: Growth inhibition percentage. In short, it runs like this:
as §1

In another assay the test system is PC-3. The note with it: Homo sapiens; PC-3 (prostate cancer), single dose 10^−5 M, 48 h; read-out: Growth inhibition percentage. In short, it runs like this:
as §1

The test system of a further assay is RPMI-8226. The settings on record: Homo sapiens; RPMI-8226 (leukemia), single dose 10^−5 M, 48 h; read-out: Growth inhibition percentage. In short, it runs like this:
as §1

For the next assay, the system named is SK-MEL-28. The settings on record: Homo sapiens; SK-MEL-28 (melanoma), single dose 10^−5 M, 48 h; read-out: Growth inhibition percentage. In short, it runs like this:
as §1

For a further assay, the system named is SK-OV-3. The note with it: Homo sapiens; SK-OV-3 (ovarian cancer), single dose 10^−5 M, 48 h; read-out: Growth inhibition percentage. In short, it runs like this:
as §1

In another assay the test system is SW-620. The settings on record: Homo sapiens; SW-620 (colon cancer), single dose 10^−5 M, 48 h; read-out: Growth inhibition percentage. A digest of the protocol: as §1
The test system of a further assay is T-47D. The note with it: Homo sapiens, T47D; T-47D (breast cancer), single dose 10^−5 M, 48 h; read-out: Growth inhibition percentage. A digest of the protocol: as §1
The next assay concerns UACC-257. The note with it: Homo sapiens; UACC-257 (melanoma), single dose 10^−5 M, 48 h; read-out: Growth inhibition percentage. In short, it runs like this:
as §1

For a further assay, the system named is UO-31. The settings on record: Homo sapiens; UO-31 (renal cancer), single dose 10^−5 M, 48 h; read-out: Growth inhibition percentage. In short, it runs like this:
as §1

One may read the inhibition as the relative decrease from the control value, in per cent.

As for `Cc1nn(-c2ccc(F)cc2)c2nc[nH]c(=O)c12` [Compound 3, 1–(4-Fluorophenyl)-3-methyl-1H-pyrazolo[3,4-d]pyrimidin-4(5H)-one], the inhibition at 10 µM is -1.13% in the assay with CCRF-CEM; 36.2% with EKVX; 10.3% with HOP-92; 0.13% in the assay on HS 578T; 3.83% with HT29; 1.69% in the assay with K-562. The inhibition at 10 µM with M14 is -7.65%; with MALME-3M, -8.22%; with MDA-MB-231/ATCC, -9.78%; in the assay with MOLT-4, 3.3%; in the assay on NCI-H322M, 5.19%; in the assay on NCI-H522 it was 4.92%. In addition, the inhibition at 10 µM is -10.4% in the assay with OVCAR-5; 1.46% in the assay on PC-3; -10.2% in the assay on RPMI-8226; -14.1% with SK-MEL-28; -2.82% in the assay on SK-OV-3; -12.3% in the assay with SW-620. Moreover, the inhibition at 10 µM in the assay with T-47D was 0.23%; in the assay with UACC-257 it was -8.15%; in the assay with UO-31, 11.7%.

Regarding `Cc1nn(-c2ccc(F)cc2)c2ncnc(N3CCN(c4ccc(Cl)cc4)CC3)c12` [Compound 8c, 4–(4-(4-Chlorophenyl)piperazin-1-yl)-1–(4-fluorophenyl)-3-methyl-1H-pyrazolo[3,4-d]pyrimidine], the inhibition at 10 µM with CCRF-CEM is -8.74%; in the assay on EKVX, 20.6%; with HOP-92, 15.9%; with HS 578T, 3.74%; with HT29, 5.97%; in the assay on K-562 it was 11.4%. Also, the inhibition at 10 µM with M14 is -0.94%; in the assay on MALME-3M, 4.22%; with MDA-MB-231/ATCC, 7.92%; in the assay with MOLT-4, 7.19%; with NCI-H322M it was 3.9%; with NCI-H522, 8.23%. Moreover, the inhibition at 10 µM is -2.91% in the assay on OVCAR-5; 11.3% with PC-3; -8.37% in the assay with RPMI-8226; -3.74% in the assay on SK-MEL-28; 12.6% in the assay with SK-OV-3; -3.16% with SW-620. The inhibition at 10 µM is 10.3% in the assay with T-47D, -0.44% with UACC-257 and 34.9% in the assay with UO-31.

For the compound `Cc1nn(-c2ccc(F)cc2)c2ncnc(Nc3ccc(F)c(Cl)c3)c12` [Compound 7d, N-(3-Chloro-4-fluorophenyl)-1–(4-fluorophenyl)-3-methyl-1H-pyrazolo[3,4-d] pyrimidin-4-amine], the inhibition at 10 µM turned out to be 0.7% in the assay with CCRF-CEM; 14.5% with EKVX; 22.8% with HOP-92; 21.5% in the assay on HS 578T; 14.4% with HT29; 1.78% in the assay with K-562. For the same compound, the inhibition at 10 µM with M14 amounted to 1.01%; in the assay with MALME-3M, 1.56%; in the assay on MDA-MB-231/ATCC it was 14.2%; with MOLT-4 it was 4.27%; with NCI-H322M it was 12%; in the assay with NCI-H522, 10.4%. The inhibition at 10 µM in the assay with OVCAR-5 was 4.92%; in the assay with PC-3, 17.2%; with RPMI-8226, 9.77%; with SK-MEL-28, -4.63%; with SK-OV-3 it was 13.9%; in the assay on SW-620, 11.1%. Further, the inhibition at 10 µM in the assay with T-47D was 27.4%; in the assay with UACC-257, -1.41%; in the assay with UO-31, 25.5%.
